Data from US7919623B2, “Naphthyridine derivatives having inhibitory activity against HIV integrase” (Shionogi & Co., Ltd., priority 2004, dated 2011).
Where a name gives a salt, the structure may show the parent alone.

System: not given
Assay: not given

SMILES	melting point [°C]
COCC=Cc1nc(C(=O)NCCN(C)C)c(O)c2ncc(Cc3ccc(F)cc3)cc12.Cl.O (hydrate or solvate) [Example B-20, 3-(4-fluorobenzyl)-8-hydroxy-5-(3-methoxypropenyl)[1,6]naphthyridine-7-carboxylic acid (2-dimethylaminoethyl)amide hydrochloride monohydrate]	156 to 158

Biological target: HIV integrase (Human immunodeficiency virus type 1 group M subtype B, UniProt P04585)
Assay: biochemical
Experimental: The inhibitory activities against integrase were determined by the assay described below. • (1) Preparation of DNA Solutions
Before using the DNA solutions, complementary chains were annealed by slowly cooling after boiling.
Streptavidin, obtained from Vector Laboratories, was dissolved in 0.1 M carbonate buffer (composition: 90 mM Na2CO3, 10 mM NaHCO3) at concentration of 40 μg/ml. After coating each well of immunoplates (obtained from NUNC) with 50 μl of the above solution at 4° C. over night, each well was washed twice with PBS (composition: 13.7 mM NaCl, 0.27 mM KCl, 0.43 mM Na2HPO4, 0.14 mM KH2PO4) and blocked with 300 μl of 1% skim milk in PBS for 30 min. Additionally, each well was washed twice with PBS and added 50 μl of substrate DNA solution (2 pmol/μl). The immunoplates were kept at room temperature for 30 min while shaking. Then, each well was washed twice with PBS and once with the distilled water.
Subsequently, in the each well prepared above were added 51 μl of the reaction solution prepared from 12 μl of the buffer (composition: 150 mM MOPS (pH7.2), 75 mM MnCl2, 50 mM 2-mercaptoethanol, 25% glycerol, 500 μg/ml bovine serum albumin-fraction V), and 39 μl of the distilled water. Then 9 μl of an integrase solution (30 pmol) was added and mixed well. In the well of negative control (NC) was added 9 μl of the integrase dilution buffer (composition: 20 mM MOPS (pH7.2), 400 mM potassium glutamate, 1 mM EDTA, 0.1% NP-40, 20% glycerol, 1 mM DTT, 4M urea), and mixed well using a plate mixer.
The plates were incubated at 30° C. for 60 minutes. The reaction solution was removed and washed three times with 250 μl of washing buffer (composition: 150 mM MOPS (pH7.2), 50 mM 2-mercaptoethanol, 25% glycerol, 500 μg/ml bovine serum albumin-fraction V).
Then each well was added with 53 μl of reaction solution prepared from 12 μl of buffer (composition: 150 mM MOPS (pH7.2), 75 mM MgCl2, 50 mM 2-mercaptoethanol, 25% glycerol, 500 μg/ml bovine serum albumin-fraction V) and 41 μl of distilled water. Further, each well was added with 6 μl of DMSO solution of a compound to be tested, and the well of positive control (PC) was added with 6 μl of DMSO, and mixed well by a plate mixer. After incubating the plate for 30 minutes at 30° C., was added 1 μl of target DNA (5 pmol/μl), and mixed well by a plate mixer.
After incubation for 10 minutes at 30° C., each plate was washed twice with PBS after removal of the reaction solution. Then, 100 μl of ×2000 diluted solution of anti-digoxigenin antibody labeled with alkaline phosphatase (sheep Fab fragment: Boehringer) was added allowed to bind for 1 hour at 30° C., and washed twice with PBS containing 0.05% Tween20 and once with PBS in this sequence. Next, 150 μl of the Alkaline phosphatase coloring buffer (composition: 10 mM p-Nitrophenylphosphate (obtained from Vector Laboratories), 5 mM MgCl2, 100 mM NaCl, 100 mM Tris-HCl (pH 9.5)) was added and allowed to react for 2 hours at 30° C. Then the reaction was terminated by the addition of 50 μl of 1N NaOH solution. The optical density at 405 nm (OD405nm) of each well was measured and the inhibition rate (IC50) was determined by the following expression. The inhibition rate(%)=100[1−{(C abs.−NC abs.)/(PC abs.−NC abs.)}]
C abs.; the OD of the well of the compound
NC abs.: the OD of the negative control (NC)
PC abs.: the OD of the positive control (PC)

SMILES	IC50 [nM]
CNC(=O)C(=O)Nc1nc(C(=O)NCCOC)c(O)c2ncc(Cc3ccc(F)cc3)cc12 [Example A-3, N-[3-(4-fluorobenzyl)-8-hydroxy-7-(2-methoxyethylcarbamoyl)[1,6]naphthyridine-5-yl]-N′-methyloxal amide]	41.7
CCC(O)CNC(=O)c1nc(NC(=O)COC)c2cc(Cc3ccc(F)cc3)cnc2c1O (stereo not drawn) [Example B-1, 3-(4-fluorobenzyl)-8-hydroxy-5-(2-methoxyacetylamino)-[1,6]naphthyridine-7-carboxylic acid (2-hydroxybutyl)amide]	24.1
COCC(=O)Nc1nc(C(=O)NCCN(C)C)c(O)c2ncc(Cc3ccc(F)cc3)cc12 [Example B-9, 3-(4-fluorobenzyl)-8-hydroxy-5-(2-methoxyacetylamino)[1,6]naphthyridine-7-carboxylic acid (2-dimethylaminoethyl)amide]	37.3
COCC(=O)Nc1nc(C(=O)NC(C)CO)c(O)c2ncc(Cc3ccc(F)cc3)cc12 (stereo not drawn) [Example B-10, 3-(4-fluorobenzyl)-8-hydroxy-5-(2-methoxyacetylamino)[1,6]naphthyridine-7-carboxylic acid (2-hydroxy-1-methylethyl)amide]	49.7
CCN(CC)CCCNC(=O)c1nc(NC(=O)COC)c2cc(Cc3ccc(F)cc3)cnc2c1O [Example B-12, 3-(4-fluorobenzyl)-8-hydroxy-5-(2-methoxyacetylamino)[1,6]naphthyridine-7-carboxylic acid (3-diethylaminopropyl)amide]	159
COCC(=O)Nc1nc(C(=O)NCCCN(C)C)c(O)c2ncc(Cc3ccc(F)cc3)cc12 [Example B-13, 3-(4-fluorobenzyl)-8-hydroxy-5-(2-methoxyacetylamino)[1,6]naphthyridine-7-carboxylic acid (3-dimethylaminopropyl)amide]	70.3
COCC=Cc1nc(C(=O)NCCN(C)C)c(O)c2ncc(Cc3ccc(F)cc3)cc12 [Example B-20, 3-(4-fluorobenzyl)-8-hydroxy-5-(3-methoxypropenyl)[1,6]naphthyridine-7-carboxylic acid (2-dimethylaminoethyl)amide hydrochloride monohydrate]	34.5
CCC(O)CNC(=O)c1nc(C(=O)NC(C)(C)C)c2cc(Cc3ccc(F)cc3)cnc2c1O (stereo not drawn) [Example B-21, 3-(4-fluorobenzyl)-8-hydroxy[1,6]naphthyridine-5,7-dicarboxylic acid 5-tert-butylamide 7-[(2-hydroxybutyl)amide]]	17.9
CCC(O)CNC(=O)c1nc(C(=O)NCCOC)c2cc(Cc3ccc(F)cc3)cnc2c1O (stereo not drawn) [Example B-22, 3-(4-fluorobenzyl)-8-hydroxy[1,6]naphthyridine-5,7-dicarboxylic acid 7-[(2-hydroxybutyl)amide] 5-[(2-methoxyethyl)amide]]	36.1
CCC(O)CNC(=O)c1nc(C(=O)NCCCN2CCCC2=O)c2cc(Cc3ccc(F)cc3)cnc2c1O (stereo not drawn) [Example B-23, 3-(4-fluorobenzyl)-8-hydroxy[1,6]naphthyridine-5,7-dicarboxylic acid 7-[(2-hydroxybutyl)amide]5-{[3-(2-oxopyrrolidine-1-yl)propyl]amide}]	35.3
CCC(O)CNC(=O)c1nc(C(=O)NCC2CCCO2)c2cc(Cc3ccc(F)cc3)cnc2c1O (stereo not drawn) [Example B-24, 3-(4-fluorobenzyl)-8-hydroxy[1,6]naphthyridine-5,7-dicarboxylic acid 7-[(2-hydroxybutyl)amide] 5-[(tetrahydrofuran-2-ylmethyl)amide]]	30.2
